# Source: paper PMC9487510, “A Novel Oral GyrB/ParE Dual Binding Inhibitor Effective against Multidrug-Resistant Neisseria gonorrhoeae and Other High-Threat Pathogens” (Antimicrobial Agents and Chemotherapy, 2022)
# What was measured:
# [1] = tested on: Neisseria gonorrhoeae strain H041; test: Estradiol-treated mouse model of cervico-vaginal infection, strain H041; type: in vivo, mouse (BALB/c); settings: 48 mg/kg, 5 QD, IP; P = 0.007
# [2] = tested on: N. gonorrhoeae (ATCC 700825); test: Intravaginal infection model, ovariectomized BALB/c mice, strain ATCC 700825; type: in vivo, mouse (BALB/c); settings: 26 h, IP 48 mg/kg QD, relative to vehicle or baseline
# [3] = tested on: N. gonorrhoeae clinical isolates; test: MIC, agar dilution (CLSI); type: cell-based, Neisseria gonorrhoeae
# [4] = tested on: VRSA; test: MIC, in vitro susceptibility testing (CLSI); type: cell-based, Staphylococcus aureus; settings: Staphylococcus aureus, VRSA
# [5] = tested on: VISA; test: MIC, in vitro susceptibility testing (CLSI); type: cell-based, Staphylococcus aureus; settings: Staphylococcus aureus, VISA
# [6] = tested on: S. aureus VRSA, VRS-2; test: Neutropenic murine thigh infection model; type: in vivo, mouse (ICR); settings: PO 50 mg/kg BID, 26 h after infection
compound,measurement,setting,value
"CNC(C)C1CCC(N)C(OC2C(N)CC(N)C(OC3OCC(C)(O)C(NC)C3O)C2O)O1 (stereo not shown) [GEN, gentamicin]",average CFU per mL of vaginal swab suspension over time,[1],significantly different than the vehicle control group
same,reduction in the bacterial counts,[2],No significant reduction in the bacterial counts
"CC1(C)S[C@@H]2[C@H](NC(=O)Cc3ccccc3)C(=O)N2[C@H]1C(=O)O [Pen, penicillin]",MIC50,[3]; 96 clinical isolates,1 µg/mL
same,MIC90,[3]; 96 clinical isolates,2 µg/mL
same,MIC range,[3]; 96 clinical isolates,<0.008 to 4 µg/mL
same,MIC,[3]; strain CDC1 (GCREF2012 016),1 µg/mL
same,MIC,[3]; strain CDC2 (GCREF2012 045),1 µg/mL
same,MIC,[3]; strain CDC3 (GCREF2013 013),1 µg/mL
same,MIC,[3]; strain CDC4 (GCREF2013 030),1 µg/mL
same,MIC,[3]; strain CDC5 (GCREF2012 001),1 µg/mL
same,MIC,[3]; strain CDC6 (GCREF2012 002),1 µg/mL
same,MIC,[3]; strain CDC8 (GCREF2012 004),0.25 µg/mL
same,MIC,[3]; strain CDC9 (GCREF2012 005),1 µg/mL
same,MIC,[3]; strain CDC10 (GCREF2012 006),1 µg/mL
same,MIC,[3]; strain CDC11 (GCREF2012 007),1 µg/mL
same,MIC,[3]; strain CDC12 (GCREF2012 008),1 µg/mL
same,MIC,[3]; strain CDC13 (GCREF2012 009),1 µg/mL
same,MIC,[3]; strain CDC14 (GCREF2012 010),1 µg/mL
same,MIC,[3]; strain CDC15 (GCREF2012 011),0.125 µg/mL
same,MIC,[3]; strain CDC16 (GCREF2012 012),2 µg/mL
same,MIC,[3]; strain CDC18 (GCREF2012 014),1 µg/mL
same,MIC,[3]; strain CDC19 (GCREF2012 015),0.25 µg/mL
same,MIC,[3]; strain CDC20 (GCREF2012 017),0.125 µg/mL
same,MIC,[3]; strain CDC21 (GCREF2012 018),1 µg/mL
same,MIC,[3]; strain CDC22 (GCREF2012 019),0.25 µg/mL
same,MIC,[3]; strain CDC23 (GCREF2012 020),1 µg/mL
same,MIC,[3]; strain CDC24 (GCREF2012 021),1 µg/mL
same,MIC,[3]; strain CDC25 (GCREF2012 022),2 µg/mL
same,MIC,[3]; strain CDC26 (GCREF2012 023),0.25 µg/mL
same,MIC,[3]; strain CDC27 (GCREF2012 024),1 µg/mL
same,MIC,[3]; strain CDC28 (GCREF2012 025),1 µg/mL
same,MIC,[3]; strain CDC29 (GCREF2012 026),1 µg/mL
same,MIC,[3]; strain CDC30 (GCREF2012 027),1 µg/mL
same,MIC,[3]; strain CDC31 (GCREF2012 028),2 µg/mL
same,MIC,[3]; strain CDC32 (GCREF2012 029),1 µg/mL
same,MIC,[3]; strain CDC33 (GCREF2012 030),1 µg/mL
same,MIC,[3]; strain CDC34 (GCREF2012 031),1 µg/mL
same,MIC,[3]; strain CDC35 (GCREF2012 032),2 µg/mL
same,MIC,[3]; strain CDC36 (GCREF2012 033),0.25 µg/mL
same,MIC,[3]; strain CDC37 (GCREF2012 034),1 µg/mL
same,MIC,[3]; strain CDC38 (GCREF2012 035),1 µg/mL
same,MIC,[3]; strain CDC39 (GCREF2012 036),2 µg/mL
same,MIC,[3]; strain CDC40 (GCREF2012 037),1 µg/mL
same,MIC,[3]; strain CDC41 (GCREF2012 038),2 µg/mL
same,MIC,[3]; strain CDC42 (GCREF2012 039),2 µg/mL
same,MIC,[3]; strain CDC43 (GCREF2012 040),2 µg/mL
same,MIC,[3]; strain CDC45 (GCREF2012 042),2 µg/mL
same,MIC,[3]; strain CDC46 (GCREF2012 043),1 µg/mL
same,MIC,[3]; strain CDC47 (GCREF2012 044),1 µg/mL
same,MIC,[3]; strain CDC48 (GCREF2012 046),1 µg/mL
same,MIC,[3]; strain CDC49 (GCREF2012 047),2 µg/mL
same,MIC,[3]; strain CDC50 (GCREF2012 048),2 µg/mL
same,MIC,[3]; strain CDC51 (GCREF2012 049),2 µg/mL
same,MIC,[3]; strain CDC52 (GCREF2012 050),2 µg/mL
same,MIC,[3]; strain CDC53 (GCREF2012 051),2 µg/mL
same,MIC,[3]; strain CDC54 (GCREF2012 052),2 µg/mL
same,MIC,[3]; strain CDC55 (GCREF2013 001),1 µg/mL
same,MIC,[3]; strain CDC56 (GCREF2013 002),1 µg/mL
same,MIC,[3]; strain CDC57 (GCREF2013 003),1 µg/mL
same,MIC,[3]; strain CDC58 (GCREF2013 004),2 µg/mL
same,MIC,[3]; strain CDC59 (GCREF2013 044),2 µg/mL
same,MIC,[3]; strain CDC60 (GCREF2013 005),4 µg/mL
same,MIC,[3]; strain CDC61 (GCREF2013 006),4 µg/mL
same,MIC,[3]; strain CDC62 (GCREF2013 007),0.25 µg/mL
same,MIC,[3]; strain CDC64 (GCREF2013 009),0.5 µg/mL
same,MIC,[3]; strain CDC65 (GCREF2013 010),0.5 µg/mL
same,MIC,[3]; strain CDC66 (GCREF2013 011),0.25 µg/mL
same,MIC,[3]; strain CDC67 (GCREF2013 014),0.5 µg/mL
same,MIC,[3]; strain CDC68 (GCREF2013 016),1 µg/mL
same,MIC,[3]; strain CDC69 (GCREF2013 017),1 µg/mL
same,MIC,[3]; strain CDC70 (GCREF2013 018),2 µg/mL
same,MIC,[3]; strain CDC71 (GCREF2013 019),0.25 µg/mL
same,MIC,[3]; strain CDC72 (GCREF2013 020),2 µg/mL
same,MIC,[3]; strain CDC73 (GCREF2013 021),0.5 µg/mL
same,MIC,[3]; strain CDC74 (GCREF2013 022),0.25 µg/mL
same,MIC,[3]; strain CDC75 (GCREF2013 023),0.5 µg/mL
same,MIC,[3]; strain CDC76 (GCREF2013 024),0.5 µg/mL
same,MIC,[3]; strain CDC77 (GCREF2013 025),0.125 µg/mL
same,MIC,[3]; strain CDC78 (GCREF2013 026),0.5 µg/mL
same,MIC,[3]; strain CDC79 (GCREF2013 027),1 µg/mL
same,MIC,[3]; strain CDC80 (GCREF2013 028),2 µg/mL
same,MIC,[3]; strain CDC81 (GCREF2013 029),2 µg/mL
same,MIC,[3]; strain CDC82 (GCREF2013 031),1 µg/mL
same,MIC,[3]; strain CDC83 (GCREF2013 032),0.25 µg/mL
same,MIC,[3]; strain CDC84 (GCREF2013 033),0.25 µg/mL
same,MIC,[3]; strain CDC87 (GCREF2013 036),2 µg/mL
same,MIC,[3]; strain CDC88 (GCREF2013 037),2 µg/mL
same,MIC,[3]; strain CDC89 (GCREF2013 038),1 µg/mL
same,MIC,[3]; strain CDC90 (GCREF2013 039),2 µg/mL
same,MIC,[3]; strain CDC91 (GCREF2013 040),2 µg/mL
same,MIC,[3]; strain CDC92 (GCREF2013 041),2 µg/mL
same,MIC,[3]; strain CDC93 (GCREF2013 042),1 µg/mL
same,MIC,[3]; strain CDC94 (GCREF2013 043),0.25 µg/mL
same,MIC,[3]; strain CDC95 (GCREF2013 045),2 µg/mL
same,MIC,[3]; strain CDC96 (GCREF2013 046),1 µg/mL
same,MIC,[3]; strain CDC97 (GCREF2013 047),1 µg/mL
same,MIC,[3]; strain CDC98 (GCREF2013 048),0.25 µg/mL
same,MIC,[3]; strain CDC99 (GCREF2013 012),0.25 µg/mL
same,MIC,[3]; strain CDC100 (GCREF2013 015),1 µg/mL
"CO[C@H]1/C=C/O[C@@]2(C)Oc3c(C)c(O)c4c(O)c(c(/C=N/N5CCN(C)CC5)c(O)c4c3C2=O)NC(=O)/C(C)=C\C=C\[C@H](C)[C@H](O)[C@@H](C)[C@@H](O)[C@@H](C)[C@H](OC(C)=O)[C@@H]1C [Rif, rifampicin]",MIC,[4]; strain 2 25 23,< 0.078 µg/mL
same,MIC,[4]; strain 2 25 24,< 0.078 µg/mL
same,MIC,[4]; strain 2 25 25,< 0.078 µg/mL
same,MIC,[4]; strain 2 25 26,< 0.078 µg/mL
same,MIC,[4]; strain 2 25 27,< 0.078 µg/mL
same,MIC,[4]; strain 2 25 28,< 0.078 µg/mL
same,MIC,[4]; strain VRS2 (VRS-2),> 10 µg/mL
same,MIC,[5]; strain 2 11 43,< 0.078 µg/mL
same,MIC,[5]; strain 2 11 56,> 10 µg/mL
same,MIC,[5]; strain 2 11 57,< 0.078 µg/mL
same,MIC,[5]; strain 2 11 61,< 0.078 µg/mL
same,MIC,[5]; strain 2 11 71,> 10 µg/mL
same,MIC,[5]; strain 2 11 78,< 0.078 µg/mL
same,MIC,[5]; strain 2 11 86,> 10 µg/mL
same,MIC,[5]; strain 2 13 52,> 10 µg/mL
CC(=O)NC[C@H]1CN(c2ccc(N3CCOCC3)c(F)c2)C(=O)O1 [linezolid],bacterial count reduction in thigh,[6],3.41 log10
